This note sets out measurements from patent publication US5089494A, “4-phenylphthalazine derivatives which inhibit platelet aggregation” (Mitsubishi Kasei Corporation, priority 1990, dated 1992).

The test system of assay [1] is platelet aggregation. As to the kind of experiment: Platelet aggregation-inhibitory activity in vitro (collagen-induced, rat platelet rich plasma). The class given is cell-based. To be noted: for inhibition at 1 µM / inhibition at 0.1 µM / inhibition at 0.3 µM: read-out: in vitro Inhibitory ratio; for inhibition at 0.3 µM: 3 × 10^-7 M. Here is the method: Platelet aggregation-inhibitory activity in vitro
Rat arterial blood was centrifuged to obtain platelet rich plasma.
Platelet aggregation inhibitory ratio was calculated by the following formula: [formula] Tc: Aggregation degree where only a solvent was added. Ts: Aggregation degree where a solution of the test compound was added.

In assay [2] the test system is platelet aggregation. As to the kind of experiment: Platelet aggregation inhibitory activity ex vivo (by oral administration). To be noted: 1 hour, collagen 7 to 10 μg/ml, rat. It counts as in vivo, male Wistar ST rats. Here is the method: Platelet aggregation inhibitory activity ex vivo (by oral administration)
A group of 8 male Wistar ST rats each weighing about 250 grams were used. To the test animal was orally administered 4 ml/kg of a solution made by suspending a test compound in 1% aqueous tragacanth solution, and one hour later blood was collected from common carotid artery with a cannula. […] The residue was further centrifuged by […] for 15 minutes and the supernatant was recovered as poor platelet plasma (PPP). The plasma samples were used for assaying the platelet aggregating ability.
As an aggregation inducer, 7 to 10 μg/ml of collagen (Hormon-Chemie) was used.
Platelet Aggregation-inhibitory ratio was calculated by the following formula: [formula] A: Aggregating ratio of the group (control) in which only 1% aqueous tragacanth solution was administered.
B: Aggregating ratio of the group in which a solution of the test compound in tragacanth solution was administered.

Assay [3] deals with rat left coronary artery ligation-induced cardiac infarction. Description: Activity to rat left coronary artery ligation-induced cardiac infarction. The class given is in vivo, male SD rats. The conditions noted are these: 60 minutes prior to ligation. The source says: Activity of the compounds (I) to rat left coronary artery ligation-induced cardiac infarction
A group of 8 male SD rats weighing 200 to 250 g were used. The rats were fixed at the dosal position under light ether paralysis, subjected to longitudinal incission in about 1.5 cm along the sternal left line to make thoractonomy under breaking the heart sac and exposing the heart. After ligating the left main coronary artery at 1 to 2 mm from the origin with black blade silk suture (Hama Ika Kogyo, 4-0), the heart was returned at the original position and the breast was closed immediately. The bilateral breast was pressed to exclude the air in the thoracic cavity to resume respiration. […] Twenty-four hours after ligation, the blood was collected from the ventral vena cava, and the rat was killed by complete bleeding. The heart was taken out, and the cross circular slice (about 2 mm) at the central part of the heart was incubated at 37° C. in the dark for 20 minutes in 20 ml of 1% solution of TTC (tryphenyl tetrazolium chloride, Wako Junyaku) in 0.09 M phosphate buffer (pH 8.6). The slice was photographed under a stereoscopic microscope, and the colored slides were prepared therefrom. The slides were projected on the wall, and the sections, the infarction parts (TTC non-dyed part) and non-infarction parts (TTC dyed part), were traced. So, the area of the infarction part in the total section area was calculated. A solution made by suspending the test compound in 1% aqueous tragacanth solution was orally administered 60 minutes prior to the coronary artery ligation. [formula] A: Infarction ratio where only 1% tragacanth solution was administered for control.
B: Infarction ratio where the tragacanth solution containing the test compound was administered.

`CC(Nc1nnc(-c2ccccc2)c2ccccc12)c1ccccc1` (racemic) [1 (DL)]: the inhibition at 1 µM in the assay with platelet aggregation [1] (10^-6 M) came to 84%. The inhibition at 0.1 µM in the assay on platelet aggregation [1] (10^-7 M) came to 72.2%. Also, the “ex vivo Inhibitory ratio (p.o.)” value in the assay with platelet aggregation [2] (1 mg/kg p.o.) is on record as 76.2%; in the assay with platelet aggregation [2] (3 mg/kg p.o.), 79.8%.
For the compound `CCC(Nc1nnc(-c2ccccc2)c2ccccc12)c1ccccc1` (racemic) [2 (DL)], the inhibition at 1 µM in the assay with platelet aggregation [1] (10^-6 M) stood at 96.4%. In addition, the inhibition at 0.1 µM with platelet aggregation [1] (10^-7 M) was 100%. Besides, the “ex vivo Inhibitory ratio (p.o.)” value in the assay with platelet aggregation [2] (1 mg/kg p.o.) came out at 37.8%; with platelet aggregation [2] (3 mg/kg p.o.) it was 52.3%; with platelet aggregation [2] (10 mg/kg p.o.) it was 94.5%.
Consider `CCCC(Nc1nnc(-c2ccccc2)c2ccccc12)c1ccccc1` (racemic) [3 (DL)], for which the inhibition at 0.3 µM in the assay with platelet aggregation [1] worked out at 96.8%. Further, the inhibition at 0.1 µM in the assay on platelet aggregation [1] (10^-7 M) came to 65.9%.
As for `CC(C)C(Nc1nnc(-c2ccccc2)c2ccccc12)c1ccccc1` (racemic) [4 (DL)], in the assay on platelet aggregation [1] (10^-6 M), the inhibition at 1 µM worked out at 96.6%. Further, the inhibition at 0.1 µM with platelet aggregation [1] (10^-7 M) amounted to 49.3%.
The corresponding values for `CCCCC(Nc1nnc(-c2ccccc2)c2ccccc12)c1ccccc1` (racemic) [5 (DL)] are 98.4% and 20.6%.
As for `CC(C)(C)C(Nc1nnc(-c2ccccc2)c2ccccc12)c1ccccc1` (racemic) [8 (DL)], in the assay on platelet aggregation [1] (10^-6 M), the inhibition at 1 µM was 100%. Moreover, the inhibition at 0.1 µM in the assay on platelet aggregation [1] (10^-7 M) came out at 100%. Further, the entries for the “ex vivo Inhibitory ratio (p.o.)” value in the assay with platelet aggregation [2] (1 mg/kg p.o.), with platelet aggregation [2] (3 mg/kg p.o.) and in the assay with platelet aggregation [2] (10 mg/kg p.o.) were 22.0%, 35.1% and 69.9%, respectively.
On to `CC(Nc1nnc(-c2ccc(Cl)cc2)c2ccccc12)c1ccccc1` (racemic) [34 (DL)], for which the inhibition at 1 µM with platelet aggregation [1] (10^-6 M) turned out to be 100%.
`Cc1ccc(C(C)Nc2nnc(-c3ccccc3)c3ccccc23)cc1` (racemic) [56 (DL)]: the inhibition at 0.1 µM with platelet aggregation [1] (10^-7 M) worked out at 92.9%.
Take `Cc1cccc(C(C)Nc2nnc(-c3ccccc3)c3ccccc23)c1` (racemic) [57 (DL)]: in the assay with platelet aggregation [1] (10^-7 M), the inhibition at 0.1 µM was 90.3%. In the assay with platelet aggregation [2] (1 mg/kg p.o.), the “ex vivo Inhibitory ratio (p.o.)” value is recorded as 61.8%.
Consider `Cc1ccccc1C(C)Nc1nnc(-c2ccccc2)c2ccccc12` (racemic) [58 (DL)], for which, in the assay on platelet aggregation [1] (10^-7 M), the inhibition at 0.1 µM came to 89.9%.
Still for that read-out and setting: next, `CCc1ccc(C(C)Nc2nnc(-c3ccccc3)c3ccccc23)cc1` (racemic) [59 (DL)]: 56.5%.
On to `COc1ccc(C(C)Nc2nnc(-c3ccccc3)c3ccccc23)cc1` (racemic) [69 (DL)], for which the inhibition at 0.3 µM in the assay on platelet aggregation [1] was determined as 74.7%. Further, in the assay with platelet aggregation [1] (10^-7 M), the inhibition at 0.1 µM was found to be 21%.
In the case of `COc1cccc(C(C)Nc2nnc(-c3ccccc3)c3ccccc23)c1` (racemic) [72 (DL)], the inhibition at 1 µM in the assay on platelet aggregation [1] (10^-6 M) worked out at 94.8%. Also, the inhibition at 0.1 µM in the assay on platelet aggregation [1] (10^-7 M) was 14.9%.
For `COc1ccccc1C(C)Nc1nnc(-c2ccccc2)c2ccccc12` (racemic) [73 (DL)], in the assay with platelet aggregation [1] (10^-7 M), the inhibition at 0.1 µM was determined as 93.3%.
Regarding `COc1ccc(C(C)Nc2nnc(-c3ccccc3)c3ccccc23)cc1OC` (racemic) [78 (DL)], the inhibition at 0.3 µM with platelet aggregation [1] is 93.6%. Besides, the inhibition at 0.1 µM with platelet aggregation [1] (10^-7 M) came to 6.2%.
The matching figures for `CC(Nc1nnc(-c2ccccc2)c2ccccc12)c1ccc2c(c1)OCO2` (racemic) [79 (DL)]: 95.3% and 6.3%.
The corresponding values for `CC(Nc1nnc(-c2ccccc2)c2ccccc12)c1ccc(Cl)cc1` (racemic) [80 (DL)] are 93.3% and 26.3%.
As to `CC(Nc1nnc(-c2ccccc2)c2ccccc12)c1cccc(Cl)c1` (racemic) [81 (DL)], the inhibition at 1 µM in the assay on platelet aggregation [1] (10^-6 M) worked out at 98.3%. Besides, the inhibition at 0.1 µM with platelet aggregation [1] (10^-7 M) was found to be 40.7%. Moreover, the “ex vivo Inhibitory ratio (p.o.)” value with platelet aggregation [2] (10 mg/kg p.o.) is on record as 72.5%.
Regarding `CC(Nc1nnc(-c2ccccc2)c2ccccc12)c1ccccc1Cl` (racemic) [82 (DL)], the inhibition at 0.3 µM with platelet aggregation [1] stood at 58.5%. In the assay with platelet aggregation [1] (10^-6 M), the inhibition at 1 µM was determined as 65.5%.
For `CC(Nc1nnc(-c2ccccc2)c2ccccc12)c1ccc(F)cc1` (racemic) [85 (DL)], the inhibition at 0.3 µM in the assay on platelet aggregation [1] turned out to be 94.1%. Besides, the inhibition at 0.1 µM in the assay with platelet aggregation [1] (10^-7 M) was 10.2%.
On to `CC(Nc1nnc(-c2ccccc2)c2ccccc12)c1cccc(F)c1` (racemic) [86 (DL)], for which the inhibition at 1 µM in the assay on platelet aggregation [1] (10^-6 M) is 100%. The “ex vivo Inhibitory ratio (p.o.)” value with platelet aggregation [2] (1 mg/kg p.o.) is recorded as 40.5%.
Consider `CC(Nc1nnc(-c2ccccc2)c2ccccc12)c1ccccc1F` (racemic) [87 (DL)], for which the inhibition at 1 µM with platelet aggregation [1] (10^-6 M) worked out at 52.4%.
On the same count and under the same terms, next, `CC(Nc1nnc(-c2ccccc2)c2ccccc12)c1ccc(C(F)(F)F)cc1` (racemic) [91 (DL)]: 22.5%.
For `CC(Nc1nnc(-c2ccccc2)c2ccccc12)c1cccc(C(F)(F)F)c1` (racemic) [92 (DL)], the inhibition at 1 µM in the assay on platelet aggregation [1] (10^-6 M) amounted to 89.5%. For the same compound, the inhibition at 0.1 µM in the assay with platelet aggregation [1] (10^-7 M) worked out at 1.5%.
For `C[C@@H](Nc1nnc(-c2ccccc2)c2ccccc12)c1ccccc1` [1 (D), D-1-α-methylbenzylamino-4-phenylphthalazine], the “in vitro Inhibitory ratio” value in the assay on platelet aggregation [1] (10^-6 M, 1 µM) was determined as 100%; with platelet aggregation [1] (10^-7 M, 0.1 µM), 100%. Besides, the “ex vivo Inhibitory ratio (p.o.)” value in the assay on platelet aggregation [2] (1 mg/kg p.o.) was 65.5%; with platelet aggregation [2] (3 mg/kg p.o.), 80.2%; with platelet aggregation [2] (10 mg/kg p.o.), 88.5%. Besides, the “Cardiac infarction inhibitory ratio” value amounted to 81.1% in assay [3] (2 mg/kg p.o.) and 76.6% in assay [3] (10 mg/kg p.o.).
`CC(=O)Oc1ccccc1C(=O)O` [Aspirin, reference compound]: the “Cardiac infarction inhibitory ratio” value in assay [3] (100 mg/kg p.o.) is listed as 10.7%.
Regarding `CC(C)(Nc1nnc(-c2ccccc2)c2ccccc12)c1ccccc1` [Compound No. 119, 1-α,α-dimethylbenzylamino-4-phenylphthalazine], the inhibition at 0.1 µM with platelet aggregation [1] (10^-7 M) turned out to be 93%.
For the compound `c1ccc(CCCNc2nnc(-c3ccccc3)c3ccccc23)cc1` [Control 3, reference compound], in the assay with platelet aggregation [1] (10^-6 M), the inhibition at 1 µM stood at 40.7%. In addition, the inhibition at 0.1 µM in the assay on platelet aggregation [1] (10^-7 M) stood at 12.6%.
As for `CC(Cc1ccccc1)Nc1nnc(-c2ccccc2)c2ccccc12` (centres unmarked) [Control 4, reference compound], the inhibition at 1 µM in the assay with platelet aggregation [1] (10^-6 M) was found to be 7.1%.
With `Clc1ccccc1CN1CCc2sccc2C1` [Ticlopidine, reference compound], in assay [3] (30 mg/kg p.o.), the “Cardiac infarction inhibitory ratio” value is on record as 10.1%.
Consider `c1ccc(-c2nnc(NC3(c4ccccc4)CCCCC3)c3ccccc23)cc1` [compound 136], for which the inhibition at 0.1 µM in the assay with platelet aggregation [1] (10^-7 M) is 94.7%.
On to `Cc1ccc(C(C)(C)Nc2nnc(-c3ccccc3)c3ccccc23)cc1` [compound 166], for which the inhibition at 1 µM in the assay on platelet aggregation [1] (10^-6 M) was 100%. For the same compound, the inhibition at 0.1 µM with platelet aggregation [1] (10^-7 M) turned out to be 100%.
Turning to `Cc1cccc(C(C)(C)Nc2nnc(-c3ccccc3)c3ccccc23)c1` [compound 167], the inhibition at 1 µM in the assay with platelet aggregation [1] (10^-6 M) came to 100%. The inhibition at 0.1 µM in the assay on platelet aggregation [1] (10^-7 M) was 100%.
